# Data reported in article PMC6155625 (Molecules : A Journal of Synthetic Chemistry and Natural …, 2017).
# pIC50: −log10 of the molar value. Marks after values point to notes of the source that are not given here.
# Experiments:
# VH10 cells = assay: In vitro mammalian chromosome aberration test on VH10; assay type: cell-based, human; conditions: for Number of Aberrant Metaphases / Number of Chromosome Aberrations, Chromatid b/f / Number of Chromosome Aberrations, Chromatid g / Number of Chromosome Aberrations, Exchange qr / Number of Chromosome Aberrations, Exchange tr / Number of Chromosome Aberrations, Isochromatid b/f / Total Number of CA / Number of Chromosome Aberrations, Exchange dic: 100 metaphases
# Description: HepG2 and VH10 cells were seeded into Petri dishes (Ø = 60 mm; HepG2 inoculum of 1 × 10^6 cells/dish and VH10 inoculum of 3.8 × 10^5 cells/dish) for 2 h. Then, HF non-clastogenic concentrations (0.75 or 1.5 µM) were added and the cultures were incubated for 24 h. These concentrations of HF were chosen based on preliminary experiments (range-finding tests). Afterwards the medium was replaced with fresh medium alone or with fresh medium containing mutagens B(a)P (1.7 μM for HepG2 cells) or cisPt (0.5 μM for HepG2 cells and 0.75 μM for VH10 cells), and the HepG2 cells were cultivated further for 42 h and VH10 cells for 36 h, which approximately corresponds to 1.3 cell cycles of HepG2 and VH10 cells. Three hours before the end of the cultivation, colchicine (0.75 µg/mL) was added. Before karyological processing, the cells were counted. Slides were prepared by the standard air-drying method and were stained with 2% aqueos Giemsa-Romanowski solution for 10 min.
# (§1) Chromosome aberrations were evaluated by a microscopic examination. For each sample, 100 metaphases were analyzed. We focused on the following structural aberrations; breaks, chromatid, and iso-chromatid, and exchanges, including dicentrics, rings, tri-radials and quadri-radials. The results were evaluated statistically on the basis of the difference between two relative values. The percentage of aberrant metaphases and the total number of chromosome aberrations was compared to solvent control (SC), or clastogenic effect, and positive control (PC), or anticlastogenic effect. Since the genetic significance of gaps is not clearly understood, they were not included in the assessment of chromosomal damage and thus were not evaluated statistically.
# HepG2 cells [1] = assay: In vitro mammalian chromosome aberration test on HepG2; assay type: cell-based, human
# Description: HepG2 and VH10 cells were seeded into Petri dishes (Ø = 60 mm; HepG2 inoculum of 1 × 10^6 cells/dish and VH10 inoculum of 3.8 × 10^5 cells/dish) for 2 h. […] Three hours before the end of the cultivation, colchicine (0.75 µg/mL) was added. Before karyological processing, the cells were counted. Slides were prepared by the standard air-drying method and were stained with 2% aqueos Giemsa-Romanowski solution for 10 min.
# as §1
# HepG2 cells [2] = conditions: read-out: IC50 (cell survival, MTT), 42 h treatment
# Description: Thereafter, the medium was removed, and replaced by 200 µL of DMSO. The absorbance was measured at 540 and 690 nm using an xMarkTM Microplate Spectrophotometer (Bio-Rad Laboratories, Inc., Berkeley, CA, USA).
# human lymphocytes = conditions: HF 0.02–1 µM pretreatment, then zeocin 4.5 µM
# Description: In the alkaline comet assay human lymphocytes were used. They were isolated from peripheral blood obtained by the finger prick method. To 1 mL of ice cold 1× PBS, 40 μL of peripheral blood was added and allowed to stand on ice for 30 min. Lymphocytes were separated from whole blood samples by standard centrifugation with 100 μL of the Histopaque medium (Sigma-Aldrich). After the centrifugation, 200 μL of isolated cells were resuspended in 1 mL of 1× PBS buffer and re-centrifuged.
# This assay was selected for detecting the potential antigenotoxic effect of HF towards zeocin on the human lymphocytes. […] Briefly, human lymphocytes were suspended in 1% low melting point agarose (LMP) in PBS and placed on slides pre-coated with 1% normal melting point agarose (NMP). Slides with embedded lymphocytes were incubated for 1 h in HF solution (0.02; 0.05; 0.2; 1 µM). […] Afterwards, the zeocin solution was rinsed off with PBS. […] For the negative control, cells were left untreated in PBS for 1 h. […] Finally, the slides were stained with 20 µg/mL of ethidium bromide (Sigma-Aldrich, Bratislava, Slovakia), and, in each sample, 100 random nucleoids were scored at magnification 400× using a fluorescence microscope Olympus BX 51. The DNA damage was evaluated using the Comet visual computer software. DNA damage was expressed as the percentage of DNA in the tail (% tail DNA) [55]. […]
# S. typhimurium TA98 = conditions: all HF concentrations (0.075–2 µg/plate) + 4-NQO 20 µg/plate; without S9
# Description: (§2) The Ames assay was conducted according to the method modified by Maron and Ames. In the Ames test, three bacterial strains of S. typhimurium (TA97, TA98, and TA100) were used. These strains are deficient in histidine and biotin, and, at the same time, they are deficient in excision repair. Prior to each experiment, the quality of each bacterial strain was checked similarly, as described by Berg et al.. The assay was carried out in sterile test tubes containing 100 µL (approximately 1.10^8 cells/mL) of overnight bacterial culture (overnight cultivated in 50 mL of LB medium) and 2.5 mL of the top-agar (with traces of histidine and biotin). In the case of metabolic activation, S9 mix was used to activate a promutagen 2-aminofluorene (50 µg/plate, Serva, Heidelberg, Germany). […] As positive controls (PC), the following diagnostic/direct mutagens were used: 9-aminoacridine (50 µg/plate, Serva, Heidelberg, Germany) for TA97; 4-nitroquinoline-1-oxide (20 µg/plate, Serva, Heidelberg, Germany) for TA98; and sodium azide (50 µg/plate, Serva, Heidelberg, Germany) for TA100. […] After 48 h of cultivation at 37 °C, his^+ revertants were counted. All experiments were conducted in triplicate. The data obtained were then analyzed using Student’s t-test.
# S. typhimurium TA100 = conditions: HF 0.075–2 µg/plate + sodium azide 50 µg/plate; without S9
# Description: as §2
# [3] = test system: Salmonella typhimurium TA97; conditions: HF 0.075–2 µg/plate + 9-aminoacridine 50 µg/plate; without S9
# Description: as §2
# [4] = cisPt 0.75 µM (positive control)
# [5] = cisPt 0.5 µM (positive control), 100 metaphases
# [6] = HF 0.75 µM pretreatment 24 h + cisPt 0.75 µM
# [7] = HF 1.5 µM pretreatment 24 h + cisPt 0.75 µM
# [8] = HF 0.75 µM pretreatment 24 h + cisPt 0.5 µM, 100 metaphases
# [9] = HF 0.75 µM pretreatment + B(a)P 1.7 µM, 100 metaphases
# [10] = HF 1.5 µM pretreatment 24 h + cisPt 0.5 µM, 100 metaphases
# [11] = HF 1.5 µM pretreatment + B(a)P 1.7 µM, 100 metaphases
molecule,measurement,setting,value
"N.N.[Cl][Pt][Cl] [cisPt, cisplatinum(II)diamine dichloride, reference compound]",Number of Aberrant Metaphases,VH10 cells; [4],33 ***
same,"Number of Chromosome Aberrations, Chromatid b/f",VH10 cells; [4],26
same,"Number of Chromosome Aberrations, Chromatid g",VH10 cells; [4],2
same,"Number of Chromosome Aberrations, Exchange qr",VH10 cells; [4],4
same,"Number of Chromosome Aberrations, Exchange tr",VH10 cells; [4],5
same,"Number of Chromosome Aberrations, Isochromatid b/f",VH10 cells; [4],9
same,Total Number of CA,VH10 cells; [4],44 ***
same,Number of Aberrant Metaphases,HepG2 cells [1]; [5],38 ***
same,"Number of Chromosome Aberrations, Chromatid b/f",HepG2 cells [1]; [5],36
same,"Number of Chromosome Aberrations, Chromatid g",HepG2 cells [1]; [5],2
same,"Number of Chromosome Aberrations, Exchange dic",HepG2 cells [1]; [5],2
same,"Number of Chromosome Aberrations, Exchange qr",HepG2 cells [1]; [5],1
same,"Number of Chromosome Aberrations, Isochromatid b/f",HepG2 cells [1]; [5],8
same,Total Number of CA,HepG2 cells [1]; [5],47 ***
Hyperforin [HF],Number of Aberrant Metaphases,VH10 cells; [6],"12 **^,###"
same,"Number of Chromosome Aberrations, Chromatid b/f",VH10 cells; [6],8
same,"Number of Chromosome Aberrations, Chromatid g",VH10 cells; [6],1
same,"Number of Chromosome Aberrations, Exchange dic",VH10 cells; [6],1
same,"Number of Chromosome Aberrations, Exchange qr",VH10 cells; [6],1
same,"Number of Chromosome Aberrations, Exchange tr",VH10 cells; [6],1
same,"Number of Chromosome Aberrations, Isochromatid b/f",VH10 cells; [6],3
same,Total Number of CA,VH10 cells; [6],"14 ***^,###"
same,Number of Aberrant Metaphases,VH10 cells; [7],"11 **^,###"
same,"Number of Chromosome Aberrations, Chromatid b/f",VH10 cells; [7],8
same,"Number of Chromosome Aberrations, Chromatid g",VH10 cells; [7],3
same,"Number of Chromosome Aberrations, Exchange dic",VH10 cells; [7],1
same,"Number of Chromosome Aberrations, Exchange tr",VH10 cells; [7],2
same,Total Number of CA,VH10 cells; [7],"11 **^,###"
same,amount of aberrant metaphases and chromosome aberrations,"VH10 cells; HF pretreatment 24 h, then cisPt 0.75 µM",significant decrease
same,Number of Aberrant Metaphases,HepG2 cells [1]; [8],"10 *^,###"
same,"Number of Chromosome Aberrations, Chromatid b/f",HepG2 cells [1]; [8],5
same,"Number of Chromosome Aberrations, Chromatid g",HepG2 cells [1]; [8],2
same,"Number of Chromosome Aberrations, Exchange dic",HepG2 cells [1]; [8],2
same,"Number of Chromosome Aberrations, Isochromatid b/f",HepG2 cells [1]; [8],4
same,Total Number of CA,HepG2 cells [1]; [8],"11 *^,###"
same,Number of Aberrant Metaphases,HepG2 cells [1]; [9],8 ^###
same,"Number of Chromosome Aberrations, Chromatid b/f",HepG2 cells [1]; [9],7
same,"Number of Chromosome Aberrations, Chromatid g",HepG2 cells [1]; [9],1
same,"Number of Chromosome Aberrations, Isochromatid b/f",HepG2 cells [1]; [9],1
same,Total Number of CA,HepG2 cells [1]; [9],8 ^###
same,Number of Aberrant Metaphases,HepG2 cells [1]; [10],"14 **^,###"
same,"Number of Chromosome Aberrations, Chromatid b/f",HepG2 cells [1]; [10],10
same,"Number of Chromosome Aberrations, Chromatid g",HepG2 cells [1]; [10],2
same,"Number of Chromosome Aberrations, Exchange dic",HepG2 cells [1]; [10],1
same,"Number of Chromosome Aberrations, Isochromatid b/f",HepG2 cells [1]; [10],3
same,Total Number of CA,HepG2 cells [1]; [10],"14 **^,###"
same,Number of Aberrant Metaphases,HepG2 cells [1]; [11],8 ^###
same,"Number of Chromosome Aberrations, Chromatid b/f",HepG2 cells [1]; [11],8
same,"Number of Chromosome Aberrations, Chromatid g",HepG2 cells [1]; [11],1
same,"Number of Chromosome Aberrations, Exchange dic",HepG2 cells [1]; [11],1
same,Total Number of CA,HepG2 cells [1]; [11],9 ^###
same,amount of aberrant metaphases and chromosome aberrations,"HepG2 cells [1]; HF 0.75 and 1.5 µM pretreatment 24 h, then cisPt 0.5 µM",significant decrease
same,pIC50,HepG2 cells [2],4.70
same,percentage of damaged DNA vs positive control (zeocin),human lymphocytes,significantly decreased the percentage of damaged DNA
same,number of his+ revertants vs positive control,S. typhimurium TA98,significant decrease
same,antimutagenic effect,S. typhimurium TA100,not observed
same,number of his+ revertants vs positive control,[3],decrease
